Consider two compounds from article PMC8339067 (NPJ Breast Cancer, 2021).

For data set [1] the following is noted: cited from earlier work.
For data set [2] the following is noted: rats, single dose of the conjugate with trastuzumab, radiolabeled; cited from earlier work.
Data set [3] can be described thus: Ribociclib plasma pharmacokinetics with T-DM1 (LC-MS/MS, noncompartmental). In kind it is in vivo, human. As to conditions: for AUC: read-out: AUC24. The text has this:
Additional samples were collected according to this same schedule after the drug was taken for at least 8 days consecutive without interruption to define its steady-state pharmacokinetics. […] The assay was validated and applied to the analysis of study samples according to the recommendations in the current U.S. Food and Drug Administration Guidance for Industry on Bioanalytical Method Validation (https://www.fda.gov/drugs/-guidance-compliance-regulatory-information/guidances-drugs). […] Actual time points were calculated as the difference between the blood sample collection time and the time that the drug was taken. The plasma concentration-time data were analyzed by noncompartmental methods using model 200 for extravascular drug input in WinNonlin Professional version 5.0.1 (Pharsight Corp, Mountain View, CA). The area under the plasma concentration-time curve from the time of dosing to the time of the last sample collected prior to administration of the next dose (AUC24) was estimated using the linear-log trapezoidal method. Total oral clearance (CL/F) was calculated as the dose divided by the AUC24 for the dose given on days 19–21. Pharmacokinetic parameters are reported as the geometric mean (geometric CV%) of the values for individual patients at each dose level. GraphPad Prism for Windows, version 8.4.3 (GraphPad Software, La Jolla, CA) was used for the statistical analysis and graphical presentation of the pharmacokinetic data.

For data set [4] the following is noted: single agent, cited from earlier work.
Where [5] appears, read: 300 mg, dose no. 11-12 (steady state), 3 patients, geometric mean.
Setting [6] is: 400 mg, dose no. 13 (steady state), 1 patient.
Where [7] appears, read: 500 mg, dose no. 12 (steady state), 2 patients, geometric mean.
The mark [8] stands for this setting: 600 mg, dose no. 13 (steady state), 1 patient.

What is called CL/F is the apparent clearance, not corrected for the fraction that reaches the circulation. What is called Cmax is the highest concentration seen after dosing.

Structures are written as SMILES. Read-outs that look alike come from different tables or passages of the source.

On to `COc1cc2cc(c1Cl)N(C)C(=O)C[C@H](OC(=O)[C@H](C)N(C)C(=O)CCS)[C@]1(C)O[C@H]1[C@H](C)[C@@H]1C[C@@](O)(NC(=O)O1)[C@H](OC)/C=C/C=C(\C)C2` [DM1], for which, in data set [1], the Half-life entry is on record as “approximately 4 days”. Besides, the “Time to complete clearance” value in data set [2] was no more than 5 days.
`CN(C)C(=O)c1cc2cnc(Nc3ccc(N4CCNCC4)cn3)nc2n1C1CCCC1` [ribociclib]: the Cmin entry in data set [3] (300 mg, dose no. 1, 3 patients, geometric mean, lowest calibration concentration 1.0 ng/mL) is “< LLQ”; in data set [3] (setting [5]), 141.7 ng/mL; in data set [3] (400 mg, dose no. 1, 3 patients, geometric mean, lowest calibration concentration 1.0 ng/mL), “< LLQ”; in data set [3] (setting [6]) it was 125.6 ng/mL; in data set [3] (500 mg, dose no. 1, 3 patients, geometric mean, lowest calibration concentration 1.0 ng/mL), “< LLQ”; in data set [3] (setting [7]) it was 178.7 ng/mL. For the same compound, the Cmin entry in data set [3] (600 mg, dose no. 1, 3 patients, geometric mean, lowest calibration concentration 1.0 ng/mL) is given as “< LLQ”; in data set [3] (setting [8]) it was 493.9 ng/mL. Also, the apparent clearance (CL/F) amounted to 38.6 L/h in data set [3] (setting [5]), 47.4 L/h in data set [3] (setting [6]), 55.8 L/h in data set [3] (setting [7]) and 27.3 L/h in data set [3] (setting [8]). In data set [3] (setting [7]), the AUC24 was 8,958 ng•h/mL. In addition, the highest concentration (Cmax) was 702.8 ng/mL in data set [3] (setting [7]); 505 ng/mL in data set [3] (human, plasma, oral, 300 mg, dose no. 1, 3 patients, geometric mean, read-out: Cmax); 608 ng/mL in data set [3] (human, plasma, oral, 300 mg, dose no. 11-12 (steady state), 3 patients, geometric mean, read-out: Cmax); 735 ng/mL in data set [3] (human, plasma, oral, 400 mg, dose no. 1, 3 patients, geometric mean, read-out: Cmax); 871 ng/mL in data set [3] (human, plasma, oral, 400 mg, dose no. 13 (steady state), 1 patient, read-out: Cmax); 1270 ng/mL in data set [3] (human, plasma, oral, 600 mg, dose no. 1, 3 patients, geometric mean, read-out: Cmax). In data set [3] (human, plasma, oral, 600 mg, dose no. 13 (steady state), 1 patient, read-out: Cmax), the Cmax was found to be 1740 ng/mL. The “Overall geometric mean apparent oral clearance” value in data set [3] (from AUC24 at steady state, 7 patients, CV 28.1%) is 42.1 L/h. Also, the AUC turned out to be 5330 ng·h/mL in data set [3] (human, plasma, oral, 300 mg, dose no. 1, 3 patients, geometric mean); 7770 ng·h/mL in data set [3] (human, plasma, oral, 300 mg, dose no. 11-12 (steady state), 3 patients, geometric mean); 7980 ng·h/mL in data set [3] (human, plasma, oral, 400 mg, dose no. 1, 3 patients, geometric mean); 8430 ng·h/mL in data set [3] (human, plasma, oral, 400 mg, dose no. 13 (steady state), 1 patient); 4830 ng·h/mL in data set [3] (human, plasma, oral, 500 mg, dose no. 1, 3 patients, geometric mean); 11800 ng·h/mL in data set [3] (human, plasma, oral, 600 mg, dose no. 1, 3 patients, geometric mean). In data set [3] (human, plasma, oral, 600 mg, dose no. 13 (steady state), 1 patient), the AUC was 22000 ng·h/mL. Besides, the “Apparent oral clearance greater than with single agent” value in data set [3] (present trial versus single-agent 400 and 600 mg QD) is given as 19–65%. For the same compound, the “Geometric mean apparent oral clearance” value in data set [4] (400 mg QD, four patients, CV 59.2%) was 35.3 L/h; in data set [4] (600 mg QD, 53 patients, CV 65.7%), 25.5 L/h.
